{"source": "patent US11389427B2", "about": "“Compositions and methods of treating cardiac hypertrophy and heart failure” (CASE WESTERN RESERVE UNIVERSITY, priority 2017, dated 2022)", "key": {"[1]": {"test_system": "neonatal rat ventricular myocytes (NRVMs)", "assay": "Phenylephrine-induced (PE-induced) cardiomyocyte hypertrophy in NRVMs", "type": "cell-based", "set-up": "PE-induced cellular hypertrophy (cell size) / PE-induced expression of cellular stress markers (qPCR of Nppa and Nppb): unit of the concentration uncertain", "procedure": "(§1) SR9009 was synthesized and purified in the laboratory of Thomas Burris (Department of Pharmacology and Physiology, St. Louis University, St. Louis, Mo., USA). For in vitro experiments, SR9009 was dissolved in DMSO and administered at […]; GSK4112 (EMD Millipore) was dissolved in DMSO and administered at […] using an equal volume of DMSO as control. For in vivo experiments, SR9009 was dissolved in 5% DMSO/10% Cremaphor EL (Sigma-Aldrich, C5135)/85% PBS in a working solution at 10 mg/ml. Micewere injected at a dose of 100 mg/kg/day given i.p. once daily at zeitgeber time 8 (ZT8). The diluent without SR9009 of the same volume was used as control.\nNRVMs and CFs were isolated from the hearts of 2-day-old Sprague-Dawley rat pups (Charles River Laboratories). The cells were differentially preplated for 1.5 hr. The nonattached cells were collected as NRVM and replated with 48 hr exposure to BrdU to suppress nonmyocytes. The attached cells were passaged 2-3 times to obtain CFs. NRVMs were initially plated in growth medium (DMEM supplemented with 10% FBS, 100 U/ml penicillin-streptomycin, and 2 mM L-glutamine) for 48 hr and maintained in serum-free media thereafter (DMEM supplemented with 1% insulin-transferrin-selenium liquid media supplement [Sigma-Aldrich, 13146], 100 U/ml penicillin-streptomycin). For hypertrophic stimulation, NRVM were incubated with SR9009 or GSK4112 versus DMSO for 24 hr, followed by stimulation with PE (100 μM) for the indicated time. […]\nNRVM were plated on glass coverslips in 6-well dishes at a density of 1×10^5 cells/ml. […] Quantitation of cardiomyocyte cell surface area was performed on anti-actinin-stained cardiomyocytes using fluorescent microscopy and ImagePro software. […]\n(§2) For tissue RNA, a 10-20 mg piece of mouse heart at apex was preserved in RNA Later stabilization reagent (Qiagen) followed by mechanical disruption/homogenization in Trizol (Life Technologies) on a TissueLyser (Qiagen) using stainless steel beads (Qiagen). […] Relative expression was calculated using the ΔΔCt-method with normalization to Ppib (Cyclophilin-B). […]"}, "mouse heart mitochondria": {"test_system": "mouse heart mitochondria", "assay": "Mitochondria number, morphology and respiration in mouse hearts after TAC", "type": "in vivo", "details": "10 weeks after TAC, vs Veh", "procedure": "The assay was performed using Seahorse (Agilent) and following the manufacturer's published protocol. Isolated mitochondria (0.5 μg; measured by BCA assay) were loaded per assay.\nTotal DNA was extracted from the hearts or NRVMs using the QIAamp DNA Mini Kit (Qiagen, 51304). Mitochondrial DNA content was assessed by qPCR using primers specific for multiple mitochondrial-encoded genes (int-Cox1, mt-Nd2, int-Nd1, and mt-Nd5) and normalized to nuclear DNA content (a specific locus on mouse chromosome 6) using the ΔΔCt method.\nSmall pieces of tissue from the LV free wall were fixed by sequential immersion in triple aldehyde-DMSO, ferrocyanide-reduced osmium tetroxide, and acidified uranyl acetate; dehydrated in ascending concentrations of ethanol; passed through propylene oxide; and embedded in Poly/Bed resin (Polysciences Inc., 21844-1). Thin sections were sequentially stained with acidified uranyl acetate, followed by a modification of Sato's triple lead stain, and examined with a JEOL 1200EX electron microscope."}, "[2]": {"test_system": "C57BL/6J mice, TAC pressure overload", "assay": "Pressure overload model, transaortic constriction (TAC, 27 gauge), 6-week followup", "type": "in vivo", "details": "for Corrected left ventricle mass (LVm): echocardiogram; for Ejection fraction (EF): SR9009 i.p. daily from 1 day after surgery", "procedure": "SR9009 was synthesized and purified in the laboratory of Thomas Burris (Department of Pharmacology and Physiology, St. Louis University, St. Louis, Mo., USA). For in vitro experiments, SR9009 was dissolved in DMSO and administered at […]; GSK4112 (EMD Millipore) was dissolved in DMSO and administered at […] using an equal volume of DMSO as control. For in vivo experiments, SR9009 was dissolved in 5% DMSO/10% Cremaphor EL (Sigma-Aldrich, C5135)/85% PBS in a working solution at 10 mg/ml. […] The diluent without SR9009 of the same volume was used as control.\n(§3) All mice were C57BL/6J littermate males aged 9 weeks at the start of the experiment. Mice were anesthetized with ketamine/xylazine, mechanically ventilated (Harvard apparatus), and subjected to thoracotomy. The aortic arch was constricted between the left and right carotid arteries using a 7.0 silk suture and a 27- or 28-gauge needle as previously described (20). Chemicals were obtained from Sigma-Aldrich.\nFor transthoracic echocardiography, mice were anesthetized with 1% inhalational isofluorane and imaged using the Vevo 770 High Resolution Imaging System (Visual Sonics Inc.) and the RMV-707B 30 MHz probe. Measurements were obtained from M-mode sampling, and integrated EKVimages were taken in the LV short axis at the mid-papillary level.\nShort-axis heart sections from the midventricle were fixed in PBS/4% paraformaldehyde and embedded in paraffin. Fibrosis was visualized using Gomori's Trichrome staining kit (Sigma-Aldrich) with quantification of fibrotic area using ImagePro software. TUNEL staining was performed using the CardioTACS In Situ Apoptosis Detection kit (R&D Systems) according to manufacturer's instructions. Cryopreserved sections were used for myocardial capillary staining, which was performed in frozen LV sections using anti-PECAM-1 antibodies (1:200, BD Pharmingen, MEC13.3). The cardiomyocyte cross-sectional area was determined by staining with WGA Alexa 594 (Life Technologies) and analyzed using ImagePro software.\nGiven the strong effect of SR9009 in blocking the cellular remodeling in response to neurohormonal stress, we next tested the role of REV-ERBα activation in vivo using the classical pressure overload model. We started daily i.p. injection of SR9009 or Veh 1 day after transaortic constriction (TAC, 27 gauge) surgery and monitored cardiac hypertrophy and function by echocardiogram for 6 weeks. […] These findings were later confirmed by autopsy performed 6 weeks after TAC by heart weight and muscle fiber size analyses using wheat germ agglutinin staining on cryopreserved sections (FIGS. 3, B-E)."}, "[3]": {"test_system": "cardiac fibroblasts (CFs)", "assay": "TGβ1-induced inflammatory response of cultured cardiac fibroblasts (CFs)", "type": "cell-based, rat", "details": "cultured CFs pretreated with Veh or SR9009", "procedure": "NRVMs and CFs were isolated from the hearts of 2-day-old Sprague-Dawley rat pups (Charles River Laboratories). The cells were differentially preplated for 1.5 hr. The nonattached cells were collected as NRVM and replated with 48 hr exposure to BrdU to suppress nonmyocytes. The attached cells were passaged 2-3 times to obtain CFs. NRVMs were initially plated in growth medium (DMEM supplemented with 10% FBS, 100 U/ml penicillin-streptomycin, and 2 mM L-glutamine) for 48 hr and maintained in serum-free media thereafter (DMEM supplemented with 1% insulin-transferrin-selenium liquid media supplement [Sigma-Aldrich, 13146], 100 U/ml penicillin-streptomycin). For hypertrophic stimulation, NRVM were incubated with SR9009 or GSK4112 versus DMSO for 24 hr, followed by stimulation with PE (100 μM) for the indicated time. CFs were cultured in DMEM supplemented with 10% FBS, 100 U/ml penicillin-streptomycin, and 2 mM L-glutamine and stimulated with TGβ1 (eBioscience)."}, "[4]": {"test_system": "human induced pluripotent stem cell-differentiated cardiomyocytes (iPS-CM)", "assay": "Endothelin-1-induced hypertrophic response in human iPS-differentiated cardiomyocytes", "type": "cell-based", "details": "SR9009 pretreatment, ET-1 (10 nM)", "procedure": "We purchased human induced pluripotent stem cell-differentiated cardiomyocytes from Cellular Dynamics (iCell). We followed manufacturer's protocol and measured NPPB expression 24 hr after ET-1 (10 nM, Sigma-Aldrich) induction.\nas §2, with “(Qiagen). RNA was purified from the aqueous phase using the miRNAeasy kit (Qiagen) following manufacturer's instructions. For cellular samples, total RNA from NRVM was isolated using the High Pure RNA isolation kit (Roche Diagnostics) with on-column DNAase treatment according to manufacturer's directions.” for “(Qiagen).”\nWe induced cellular hypertrophic response in human induced pluripotent stem cell-differentiated cardiomyocytes with endothelin-1 (ET-1) and monitored NPPB (BNP) expression with SR9009 or Veh pretreatment."}, "[5]": {"test_system": "C57BL/6J mice, 28-gauge TAC heart failure model", "assay": "Heart failure model, 28-gauge TAC with cross-over, 11-week followup", "type": "in vivo, mouse", "procedure": "as §1, §3\nFor transthoracic echocardiography, mice were anesthetized with 1% inhalational isofluorane and imaged using the Vevo 770 High Resolution Imaging System (Visual Sonics Inc.) and the RMV-707B 30 MHz probe. Measurements were obtained from M-mode sampling, and integrated EKVimages were taken in the LV short axis at the mid-papillary level. […]"}, "[6]": {"details": "mouse, in vivo", "procedure": "Conscious tail-vein systolic blood pressure was measured using the BP2000 Blood Pressure Analysis System (Visitech Systems Inc.) as recommended by the manufacturer. To allow mice to adapt to the apparatus, we performed daily blood pressure measurements for 1 week prior to beginning experiments.\nSR9009 is a drug given systemically and may potentially affect other systems, such as the vascular tone, although pressure overload itself is considered a relatively specific stress directly on the heart. To exclude the possibility that the improved cardiac function and reduced hypertrophy in vivo is associated with improvement in hemodynamics, we measured blood pressure using tail cuff and found there is no difference in mice receiving 4 weeks of Veh (mean arterial pressure [MAP]=106 mmHg) or SR9009 (MAP=115 mmHg, P=0.24)."}}, "data": [{"smiles": "CCOC(=O)N1CCC(CN(Cc2ccc(Cl)cc2)Cc2ccc([N+](=O)[O-])s2)C1", "note": "(stereo not shown) [SR9009]", "values": [{"measurement": "PE-induced expression of cellular stress markers (qPCR of Nppa and Nppb)", "setting": "[1]; NRVMs pretreated 24 hours, then PE 48 hours, SR9009 at 5 (unit uncertain), GSK4112 at 10 (unit uncertain)", "value": "effectively blocked"}, {"measurement": "PE-induced cellular hypertrophy (cell size)", "setting": "[1]; NRVMs pretreated 24 hours, then PE (100 μM) 48 hours, SR9009 at 5 (unit uncertain)", "value": "effectively blocked"}, {"measurement": "PE repression of Pdk4 expression (RNA-Seq)", "setting": "[1]; NRVMs, SR9009 given 24 hr prior to PE", "value": "ameliorated"}, {"measurement": "Mitochondria morphology by electron microscopy", "setting": "mouse heart mitochondria", "value": "no difference"}, {"measurement": "Mitochondria number estimated by mtDNA to nuclear DNA ratio", "setting": "mouse heart mitochondria", "value": "no difference"}, {"measurement": "Oxidative phosphorylation (OXPHOS) measured by oxygen consumption rate", "setting": "mouse heart mitochondria", "value": "no difference"}, {"measurement": "Toxicity of the SR9009 dose", "setting": "[2]; 10 mg/kg/day, daily i.p., mice", "value": "no apparent toxicity"}, {"measurement": "Corrected left ventricle mass (LVm)", "setting": "[2]; 4 weeks after 27-gauge TAC", "value": 111.4, "unit": "mg"}, {"measurement": "Ejection fraction (EF)", "setting": "[2]; 4 weeks after 27-gauge TAC", "value": 61.4, "unit": "%"}, {"measurement": "Corrected left ventricle mass (LVm)", "setting": "[2]; 6 weeks after 27-gauge TAC", "value": 114.8, "unit": "mg"}, {"measurement": "Ejection fraction (EF)", "setting": "[2]; 6 weeks after 27-gauge TAC", "value": 60.6, "unit": "%"}, {"measurement": "Cell death, TUNEL positives per cross-section of the whole heart", "setting": "[2]; 6 weeks after TAC", "value": "13.4 positives per cross-section of the whole heart"}, {"measurement": "Capillary density", "setting": "[2]; after 6 weeks of TAC, Veh- vs SR9009-treated", "value": "no difference"}, {"measurement": "Intramuscular fibrosis area", "setting": "[2]; end of 6 weeks after TAC, Gomori Trichrome", "value": 1.1, "unit": "%"}, {"measurement": "TGβ1-induced inflammatory response", "setting": "[3]", "value": "no difference"}, {"measurement": "ET-1-induced NPPB (BNP) expression", "setting": "[4]", "value": "protective effect"}, {"measurement": "Ejection fraction (EF)", "setting": "[5]; 6 weeks after 28-gauge TAC, Group II, SR9009 from 2 weeks after TAC (average EF 44% at start)", "value": "43.9%±5%"}, {"measurement": "Ejection fraction (EF)", "setting": "[5]; after cross-over, additional 5 weeks, Group I received SR9009 (EF 29.1% at cross-over)", "value": "29.8%±3.7%"}, {"measurement": "Mean arterial pressure (MAP)", "setting": "[6]", "value": 115, "unit": "mmHg"}]}]}
